Patent US5047397A, “Linear analogs of atrial natriuretic peptides” (California Biotechnology Inc., priority 1988, dated 1991)
*1 amine or outer side, *2 acyl side, *3 side chain or, on linkers, in order; H or OH if unused. Where a SMILES comes first, the peptide text is derived from it. Where no end group is shown, it is not given here. [ ]: non-standard residue; d: D form. The star is where a group is joined. Butyryl(4-indol-3-yl) = O=C(CCCc1c[nH]c2ccccc12)*; Propanoyl(3,3-Ph2) = O=C(CC(c1ccccc1)c1ccccc1)*; Acetyl(2-naphthyloxy) = O=C(COc1ccc2ccccc2c1)*; X10 = O=C(CNc1ccc(C(=O)*)cc1)c1ccc2ccccc2c1; Acetyl(2-naphthyl) = O=C(Cc1ccc2ccccc2c1)*; NH(2S-methylbutyl) = CC[C@H](C)CN*; 2Naphthoyl = O=C(c1ccc2ccccc2c1)*; X1 = O=C(Cc1ccc(N[*:1])cc1)[*:2]; Phg = N[C@H](C(=O)O)c1ccccc1; Tle = CC(C)(C)[C@H](N)C(=O)O; 4Amb = NCc1ccc(C(=O)O)cc1; 4Abz = Nc1ccc(C(=O)O)cc1; Aib = CC(C)(N)C(=O)O; Inp = O=C(O)C1CCNCC1; GABA = NCCCC(=O)O; NHiBu = CC(C)CN*; X3 = CCC(C)CN*

Biological target: T1, specific ANP receptor sites on BASM or BAE cells (Bos taurus, UniProt P10730)
T1 construct: specific receptor sites on BASM or BAE cells; endogenous in cells; host or cells: cultured BASM and BAE cells
T1 sequence (P10730 42-537): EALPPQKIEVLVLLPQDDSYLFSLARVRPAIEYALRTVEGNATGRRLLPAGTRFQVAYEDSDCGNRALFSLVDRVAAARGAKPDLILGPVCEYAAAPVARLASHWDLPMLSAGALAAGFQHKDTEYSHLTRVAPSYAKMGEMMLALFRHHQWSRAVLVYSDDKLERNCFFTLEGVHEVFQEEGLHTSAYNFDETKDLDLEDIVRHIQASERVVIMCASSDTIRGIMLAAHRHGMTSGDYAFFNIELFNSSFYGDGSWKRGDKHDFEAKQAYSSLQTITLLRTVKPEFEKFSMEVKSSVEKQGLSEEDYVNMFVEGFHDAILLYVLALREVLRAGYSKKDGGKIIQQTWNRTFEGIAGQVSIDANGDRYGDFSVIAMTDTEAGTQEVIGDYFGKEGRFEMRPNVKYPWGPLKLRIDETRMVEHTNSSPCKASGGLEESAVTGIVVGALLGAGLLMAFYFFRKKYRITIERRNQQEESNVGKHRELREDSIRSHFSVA
Assay: Competitive displacement receptor binding of (125I)-rANP(126-150) on cultured cells
Design: species or system bovine
Details: not given
Text: Analogous "competitive displacement" receptor binding assays are considered commonplace in the art for examining specific ligand-receptor interactions.
Assuming these ANP analogs act at one or more ANP receptor sites, then increased receptor affinity should reflect increased biological potency.

Compound | receptor binding / activity as judged by Ki, in words
RIDRIG-NH2 [AP125, R--I--D--R--I--G--NH2] | do not
CC[C@H](C)[C@H](NC(=O)[C@H](CCCNC(=N)N)NC(=O)CNC(=O)CNC(=O)Cc1ccc2ccccc2c1)C(=O)N[C@@H](CC(=O)O)C(=O)N[C@@H](CCCNC(=N)N)C(=O)N1CCC[C@H]1C(N)=O [AP519, (2-NA)--G--G--R--I--D--R--P--NH2] ({Acetyl(2-naphthyl)}-GGRIDRP-NH2) | very low, if any, activity
CC[C@H](C)[C@H](NC(=O)[C@H](CCCNC(=N)N)NC(=O)[C@H](CC(=O)O)NC(=O)[C@@H](NC(=O)[C@H](CCCNC(=N)N)NC(=O)CNC(=O)CNC(=O)Cc1ccc2ccccc2c1)c1ccccc1)C(N)=O [AP575, (2-NA)--G--G--R--Phg--D--R--I--NH2] ({Acetyl(2-naphthyl)}-GGR[Phg]DRI-NH2) | very low, if any, activity
GGRIDRIGAA-NH2 [AP105, G--G--R--I--D--R--I--G--A--A--NH2] | do not

Same assay, conditions: concentration of unlabeled peptide displacing 50% of maximal binding of 0.5 nM (125I)-rANP(126-150); BASM or BAE cells

Compound | Ki(app)
CC[C@H](C)[C@H](NC(=O)[C@H](CCCNC(=N)N)NC(=O)[C@H](CC(=O)O)NC(=O)[C@@H](NC(=O)[C@H](CCCNC(=N)N)NC(=O)CNC(=O)CNC(=O)Cc1ccc2ccccc2c1)C(C)(C)C)C(N)=O [AP591, (2-NA)--G--G--R--tBuG--D--R--I--NH2] ({Acetyl(2-naphthyl)}-GGR[Tle]DRI-NH2) | 14.0 nM
CC[C@H](C)[C@H](NC(=O)[C@H](CCCNC(=N)N)NC(=O)[C@H](CC(=O)O)NC(=O)[C@@H](NC(=O)[C@H](CCCNC(=N)N)NC(=O)c1ccc(NCC(=O)c2ccc3ccccc3c2)cc1)[C@@H](C)CC)C(N)=O [AP794] (X10-RIDRI-NH2) | 13.1 nM
CC[C@H](C)[C@H](NC(=O)[C@H](CCCNC(=N)N)NC(=O)[C@H](CC(=O)O)NC(=O)[C@@H](NC[C@H](CCCCN)NC(=O)Cc1ccc(NC(=O)Cc2ccc3ccccc3c2)cc1)[C@@H](C)CC)C(N)=O [AP806] | 14.0 nM
CC[C@H](C)[C@H](NC(=O)[C@H](CCCNC(=N)N)NC(=O)[C@H](CC(=O)O)NC(=O)[C@@H](NC(=O)[C@H](CCCNC(=N)N)NC(=O)C1CCN(C(=O)COc2ccc3ccccc3c2)CC1)[C@@H](C)CC)C(N)=O [AP539] ({Acetyl(2-naphthyloxy)-Inp}-RIDRI-NH2) | 9.1 nM
CC[C@H](C)[C@H](NC(=O)[C@H](CCCNC(=N)N)NC(=O)[C@H](CC(=O)O)NC(=O)[C@@H](NC(=O)[C@H](CCCNC(=N)N)NC(=O)CNC(=O)[C@@H](C)NC(=O)COc1ccc2ccccc2c1)[C@@H](C)CC)C(N)=O [AP322, (2-NOA)--A^ --G--R--I--D--R--I--NH2] ({Acetyl(2-naphthyloxy)}-[dA]GRIDRI-NH2) | > 100 nM
CC[C@H](C)[C@H](NC(=O)[C@H](CCCNC(=N)N)NC(=O)[C@@H](CC(=O)O)NC(=O)[C@@H](NC(=O)[C@H](CCCNC(=N)N)NC(=O)CNC(=O)CNC(=O)[C@H](Cc1ccccc1)NC(=O)[C@H](C)N)[C@@H](C)CC)C(=O)NCC(=O)N[C@@H](C)C(N)=O [AP303, A--F--G--G--R--I--D^ --R--I--G--A--NH2] (H-AFGGRI[dD]RIGA-NH2) | > 200 nM
CC[C@H](C)[C@H](NC(=O)[C@H](CCCNC(=N)N)NC(=O)[C@H](CC(=O)O)NC(=O)[C@@H](NC(=O)[C@H](CCCNC(=N)N)NC(=O)CNC(=O)CNC(=O)Cc1ccc2ccccc2c1)[C@@H](C)CC)C(=O)NCC(=O)NC(C)(C)C(N)=O [AP525, (2-NA)--G--G--R--I--D--R--I--G--(Aib)--NH2] ({Acetyl(2-naphthyl)}-GGRIDRIG[Aib]-NH2) | 22.75 nM
AFGGRIDRIG-NH2 [AP102, A--F--G--G--R--I--D--R--I--G--NH2] | 14.04 nM
CCC(C)CNC(=O)[C@H](CCCNC(=N)N)NC(=O)[C@H](CC(=O)O)NC(=O)[C@@H](NC(=O)[C@H](CCCNC(=N)N)NC(=O)C1CCN(C(=O)Cc2ccc3ccccc3c2)CC1)[C@@H](C)CC (stereo partly drawn) [AP557] ({Acetyl(2-naphthyl)-Inp}-RIDR-X3) | 41.7 nM
CC[C@H](C)[C@H](NC(=O)[C@H](CCCNC(=N)N)NC(=O)CNC(=O)CNC(=O)Cc1ccc2ccccc2c1)C(=O)N[C@@H](CC(=O)O)C(=O)N[C@@H](CCCNC(=N)N)C(=O)N[C@@H](C(N)=O)C(C)C [AP535, (2-NA)--G--G--R--I--D--R--V^ --NH2)] ({Acetyl(2-naphthyl)}-GGRIDR[dV]-NH2) | 14.0 nM
CC[C@H](C)[C@H](NC(=O)[C@H](CCCNC(=N)N)NC(=O)[C@H](CC(=O)O)NC(=O)[C@@H](NC(=O)[C@H](CCCNC(=N)N)NC(=O)Cc1ccc(NC(=O)c2ccc3ccccc3c2)cc1)[C@@H](C)CC)C(N)=O [AP790] (2Naphthoyl-[X1]RIDRI-NH2) | 5.2 nM
RIDRIG-NH2 [AP125, R--I--D--R--I--G--NH2] | > 200 nM
CC[C@H](C)[C@H](NC(=O)[C@H](CCCNC(=N)N)NC(=O)[C@H](CC(=O)O)NC(=O)[C@@H](NC(=O)[C@H](CCCNC(=N)N)NC(=O)c1ccc(NC(=O)Cc2ccc3ccccc3c2)cc1)[C@@H](C)CC)C(N)=O [AP560] ({Acetyl(2-naphthyl)-4Abz}-RIDRI-NH2) | 68.8 nM
CC[C@H](C)[C@H](NC(=O)[C@H](CCCNC(=N)N)NC(=O)CNC(=O)CNC(=O)Cc1ccc2ccccc2c1)C(=O)N[C@@H](CC(=O)O)C(=O)N[C@@H](CCCNC(=N)N)C(=O)N1CCC[C@H]1C(N)=O [AP519, (2-NA)--G--G--R--I--D--R--P--NH2] ({Acetyl(2-naphthyl)}-GGRIDRP-NH2) | > 400 nM
CC[C@H](C)CNC(=O)[C@H](CCCNC(=N)N)NC(=O)[C@H](CC(=O)O)NC(=O)[C@@H](NC(=O)[C@H](CCCNC(=N)N)NC(=O)Cc1ccc(NC(=O)COc2ccc3ccccc3c2)cc1)[C@@H](C)CC [AP813] ({Acetyl(2-naphthyloxy)}-[X1]RIDR-{NH(2S-methylbutyl)}) | 56.0 nM
CC[C@H](C)[C@H](NC(=O)[C@H](CCCNC(=N)N)NC(=O)[C@H](CC(=O)O)NC(=O)[C@@H](NC(=O)[C@H](CCCNC(=N)N)NC(=O)CNC(=O)CNC(=O)CC(c1ccccc1)c1ccccc1)[C@@H](C)CC)C(=O)NCC(=O)N[C@@H](C)C(N)=O [AP331, (3-DPP)--G--G--R--I--D--R--I--G--A--NH2] ({Propanoyl(3,3-Ph2)}-GGRIDRIGA-NH2) | 6.15 nM
CC[C@H](C)[C@H](NC(=O)[C@H](CCCNC(=N)N)NC(=O)[C@H](CC(=O)O)NC(=O)[C@@H](NC(=O)[C@H](CCCNC(=N)N)NC(=O)CNC(=O)CCCc1c[nH]c2ccccc12)[C@@H](C)CC)C(=O)NCC(=O)N[C@@H](C)C(N)=O [AP531, (3-IB)--G--R--I--D--R--I--G--A--NH2)] ({Butyryl(4-indol-3-yl)}-GRIDRIGA-NH2) | 9.34 nM
CC[C@H](C)[C@H](NC(=O)[C@H](CCCNC(=N)N)NC(=O)[C@H](CC(=O)O)NC(=O)[C@@H](NC(=O)[C@H](CCCNC(=N)N)NC(=O)c1ccc(CNC(=O)c2ccc3ccccc3c2)cc1)[C@@H](C)CC)C(N)=O [AP795] ({2Naphthoyl-4Amb}-RIDRI-NH2) | 11.9 nM
CC[C@H](C)[C@H](NC(=O)[C@H](CCCNC(=N)N)NC(=O)[C@H](CC(=O)O)NC(=O)[C@@H](NC(=O)[C@H](CCCNC(=N)N)NC(=O)CNC(=O)CNC(=O)Cc1ccc2ccccc2c1)c1ccccc1)C(N)=O [AP575, (2-NA)--G--G--R--Phg--D--R--I--NH2] ({Acetyl(2-naphthyl)}-GGR[Phg]DRI-NH2) | 194.0 nM
CC[C@H](C)[C@H](NC(=O)[C@H](CCCNC(=N)N)NC(=O)CNC(=O)CNC(=O)Cc1ccc2ccccc2c1)C(=O)N[C@@H](CC(=O)O)C(=O)N[C@@H](CCCNC(=N)N)C(=O)NCC(C)C [AP510] ({Acetyl(2-naphthyl)}-GGRIDR-NHiBu) | 116.0 nM
CC[C@H](C)[C@H](NC(=O)[C@H](CCCNC(=N)N)NC(=O)[C@H](CC(=O)O)NC(=O)[C@@H](NC(=O)[C@H](CCCNC(=N)N)NC(=O)CNC(=O)CNC(=O)[C@@H](Cc1ccccc1)NC(=O)[C@H](C)N)[C@@H](C)CC)C(=O)NCC(=O)N[C@@H](C)C(N)=O [AP151, A--F^ --G--G--R--I--D--R--I--G--A--NH2] (H-A[dF]GGRIDRIGA-NH2) | 39.6 nM
GGRIDRIGAA-NH2 [AP105, G--G--R--I--D--R--I--G--A--A--NH2] | > 200 nM
CC[C@H](C)[C@H](NC(=O)[C@H](CCCNC(=N)N)NC(=O)CNC(=O)CNC(=O)COc1ccc2ccccc2c1)C(=O)N[C@@H](CC(=O)O)C(=O)N[C@@H](CCCNC(=N)N)C(=O)NCC(C)C [AP509] ({Acetyl(2-naphthyloxy)}-GGRIDR-NHiBu) | 120.0 nM
CC[C@H](C)[C@H](NC(=O)[C@H](CCCNC(=N)N)NC(=O)[C@H](CC(=O)O)NC(=O)[C@@H](NC(=O)[C@H](CCCNC(=N)N)NC(=O)CNC(=O)[C@@H](C)NC(=O)[C@H](Cc1ccccc1)NC(=O)[C@H](C)N)[C@@H](C)CC)C(=O)NCC(=O)N[C@@H](C)C(N)=O [AP133, A--F--A^ --G--R--I--D--R--I--G--A--NH2] (H-AF[dA]GRIDRIGA-NH2) | 2.93 nM
CC[C@H](C)[C@H](NC(=O)[C@H](CCCNC(=N)N)NC(=O)[C@H](CC(=O)O)NC(=O)[C@@H](NC(=O)[C@H](CCCNC(=N)N)NC(=O)CCCNC(=O)COc1ccc2ccccc2c1)[C@@H](C)CC)C(=O)NCC(=O)N[C@@H](C)C(N)=O [AP576, (2-NOA)--NH(CH2)3 CO--R--I--D--R--I--G--A--NH2] ({Acetyl(2-naphthyloxy)-GABA}-RIDRIGA-NH2) | 16.0 nM

Same assay, conditions: specificity table, unrelated peptide hormones; unit inferred

Compound | Ki(app)
CC[C@H](C)[C@H](NC(=O)[C@H](Cc1ccc(O)cc1)NC(=O)[C@@H](NC(=O)[C@H](CCCNC(=N)N)NC(=O)[C@@H](N)CC(=O)O)C(C)C)C(=O)N[C@@H](Cc1c[nH]cn1)C(=O)N1CCC[C@H]1C(=O)N[C@@H](Cc1ccccc1)C(=O)O [angiotensin II, reference compound] | > 500 nM
